Source: patent US11319344B2, “Non-membrane disruptive P53 activating stapled peptides” (AGENCY FOR SCIENCE, TECHNOLOGY AND RESEARCH, priority 2015, dated 2022)
Where two headings read alike, the source gives them in different places. *1 amine or outer side, *2 acyl side, *3 side chain or, on linkers, in order; H or OH if unused. Where a SMILES comes first, the peptide text is derived from it. Bridges are numbered along the chain shown (N, C = ends). [ ]: non-standard residue; d: D form. ξ: configuration not given here. ξαMeNle(6-ylidene) = CC(CCCC=[*:3])(N[*:1])C(=O)[*:2]; X1 = CC(CCCCCCC=[*:3])(N[*:1])C(=O)[*:2]; R8 = C=CCCCCCC[C@@](C)(N)C(=O)O; R5 = C=CCCC[C@@](C)(N)C(=O)O; S5 = C=CCCC[C@](C)(N)C(=O)O; Ahx = NCCCCCC(=O)O

Columns and labels:
[1] = test system: p53 transcriptional activity in T22 cells; test: T22 p53 β-galactosidase based reporter assay; type: cell-based, murine; details: for IC50: T22 p53 reporter assay, 18 h; for ability to induce p53 activity in T22 reporter assay: with and without serum
Experimental: The YS-01/04 peptides were screened in a murine T22-derived p53 reporter assay, either with or without fetal calf serum, to assess their ability to induce p53 transcriptional activity in intact cells (Table 1 and FIG. 3).
T22 cells, which were stably transfected with a p53 responsive β-galactosidase reporter, were seeded into 96-well plate at a cell density of 8000 cells per well. Cells were also maintained in Dulbecco's Minimal Eagle Medium (DMEM) with 10% fetal bovine serum (FBS) and penicillin/streptomycin. […] Measurements were carried out using a Safire II multiplate reader. Experiments were carried out independently twice.

[2] = test system: T22 cells; test: Lactate dehydrogenase release assay, T22 cells; type: cell-based; details: 2 h, 50/25/12.5 μM, absence or presence of serum
Experimental: (§1) The stapled YS-01/04 peptides were also screened for their ability to perturb the cell membrane wall of T22 and ARN8 cells and release cytosolic lactate dehydrogenase (LDH). An effect that is regarded as undesirable as this may indicate that the peptide is non-specifically toxic to different cell types. A short 2 hour time treatment period is used for this assay as it is assumed that perforation of the cell membrane occurs […] for cell programmed death. […] The lactate dehydrogenase leakage measured was much greater in ARN8 cells than T22 cells, showing that different cells vary in their sensitivities to the membrane disruptive properties of YS-03. […] This implies that p53 activation, which is also supported by the data for YS-04, does occur in the absence of membrane disruption and that the biological activity observed for is not a direct consequence of cellular toxicity.
(§2) T22 cells or ARN8 cells, both of which were stably transfected with a p53 responsive β-galactosidase reporter, were seeded into a 96-well plate at a cell density of 5000 cells per well. Cells were also maintained in Dulbecco's Minimal Eagle Medium (DMEM) with 10% fetal bovine serum (FBS) and penicillin/streptomycin. The cells were incubated for 24 hours and then treated with compounds/peptide for 2 hours in DMEM with or without 10% FBS. Cytosolic lactate dehydrogenase release was detected using the non-radioactive cytotoxicity Assay kit (Promega) as per manufacturer's instructions. Measurements were carried out using an Envision multiplate reader.

[3] = test system: ARN8 cells; test: Lactate dehydrogenase release assay, ARN8 cells; type: cell-based; details: 2 h, 50/25/12.5 μM, absence or presence of serum
Experimental: as §1, §2

[4] = target: N-terminal domain of Mdm2 (1-125) (Homo sapiens, UniProt Q00987); test: Competitive fluorescence anisotropy titration (apparent Kd); details: for Kd stronger in comparison to sMTIDE-02: ratio to sMTIDE-02 Kd
Experimental: In this assay, a N-terminally FAM labelled peptide of the sequence [sequence]
The cells expressing the Mdm2 GST fusion construct were grown in LB medium at 37° C. to an OD600 of ˜0.6 and induction was carried out with 1 mM isopropyl β-D-1-thiogalactopyranoside (IPTG) at room temperature. Cells were harvested by centrifugation and the cell pellets were resuspended in 50 mM Tris pH 8.0, 10% sucrose and then sonicated. The sonicated sample was centrifuged for 60 minutes at 17,000 g at 4° C. […] The column was then further washed by 6 volumes of wash buffer. Mdm2 were then purified from the column by cleavage with PreScission protease. 10 units of PreScission protease, in one column volume of PBS with 1 mM DTT buffer, were injected onto the column. The cleavage reaction was allowed to proceed overnight at 4° C. The cleaved protein was then eluted of the column with wash buffer. Protein fractions were analysed with SDS-PAGE and concentrated using a Centricon (3.5 kDa molecular weight cut-off (MWCO)) concentrator. The Mdm2 protein sample was then dialyzed into a buffer solution containing 20 mM Bis-Tris, pH 6.5, 0.05M NaCl with 1 mM DTT and loaded onto a monoS column pre-equilibrated in buffer A (20 mM Bis-Tris, pH 6.5, 1 mM DTT). The column was then washed in 6 column volumes of buffer A and bound protein was eluted with a linear gradient of 1M NaCl over 25 column volumes. Protein fractions were analysed with sodium dodecyl sulfate-polyacrylamide gel electrophoresis (SDS-PAGE) and concentrated using a Centricon (3.5 kDa molecular weight cut-off (MWCO)) concentrator.
Apparent dissociation constant (Kd) values were determined for a variety of molecules via competitive fluorescence anisotropy experiments. […] The competing molecules were then titrated against the complex of the FAM labelled peptide and protein. Apparent dissociation constant (Kd) values were determined by fitting the experimental data to the equations shown below:
[L]st and [L]t denote labelled ligand and total unlabelled ligand input concentrations, respectively. Kd2 is the dissociation constant of the interaction between the unlabelled ligand and the protein. In all competitive types of experiments, it is assumed that [P]t>[L]st, otherwise considerable amounts of free labelled ligand would always be present and would interfere with measurements. […] The FAM-labelled peptide was dissolved in dimethyl sulfoxide (DMSO) at 1 mM and diluted into experimental buffer. Readings were carried out with a Envision Multilabel Reader. […] All titrations were carried out in triplicate. Curve-fitting was carried out using Prism 4.0 (GraphPad). […]

[5] = Circular dichroism spectroscopy (helicity in solution); type: physicochemical; details: peptide unbound in solution
[6] = test system: p53 transcriptional activity in ARN8 cells; test: ARN8 β-galactosidase based p53 reporter assay; type: cell-based, Human; details: 18 h; for p53 activation (β-galactosidase activity) in ARN8 cells: serum free
Experimental: ARN8 cells contain the same β-galactosidase gene under the control of a p53 promoter that is stably transfected into T22 cells. […] The YS-07 and YS-09 titrations were again repeated and the lactate dehydrogenase leakage from ARN8 cells measured instead (FIGS. 8c and 8d).
ARN8 cells, which were stably transfected with a p53 responsive β-galactosidase reporter, were seeded into 96-well plate at a cell density of 8000 cells per well. Cells were also maintained in Dulbecco's Minimal Eagle Medium (DMEM) with 10% fetal bovine serum (FBS) and penicillin/streptomycin. […] Measurements were carried out using a Safire II multiplate reader. Experiments were carried out independently twice.

[7] = absence of serum, read-out: T22 IC50 (0% μM)
[8] = presence of 10% fetal calf serum, read-out: T22 Ic50 (10% μM)

N-terminal domain of Mdm2 (1-125), sequence (Q00987 1-125): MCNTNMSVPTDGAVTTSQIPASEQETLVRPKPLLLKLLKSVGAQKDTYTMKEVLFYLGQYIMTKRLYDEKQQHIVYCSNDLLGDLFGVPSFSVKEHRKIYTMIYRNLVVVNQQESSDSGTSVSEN

Row | SMILES | IC50 [1, 7] [µM] | IC50 [1, 8] [µM] | ability to induce p53 activity in T22 reporter assay [1] | helicity in solution (CD spectra) [5] | also measured
1 | CC(=O)N[C@@H](CCCCN)C(=O)N[C@@H](CCCCN)C(=O)NCCCCCC(=O)N[C@H](C(=O)N[C@@H](CO)C(=O)N[C@@H](Cc1ccccc1)C(=O)N[C@]1(C)CCCCCCC=CCCC[C@@](C)(C(=O)N[C@@H](CCC(=O)O)C(=O)N[C@@H](CC(N)=O)C(=O)N[C@@H](Cc2ccc(O)cc2)C(N)=O)NC(=O)[C@H](CC(C)C)NC(=O)[C@H](CC(C)C)NC(=O)[C@H](C)NC(=O)[C@H](Cc2c[nH]c3ccccc23)NC(=O)[C@H](Cc2ccc(O)cc2)NC(=O)[C@H](CCC(=O)O)NC1=O)[C@@H](C)O [YS-08, Ac-KK-Ahx-^17TSFX8EYWALLS5ENY^30-NH2] (Ac-KK[Ahx]TSF[R8]EYWALL[S5]ENY-NH2; staple 7-14) | 7.29 | 23.4 | least potent amongst the four peptides | – | –
2 | CC(=O)N[C@H](C(=O)N[C@@H](CO)C(=O)N[C@@H](Cc1ccccc1)C(=O)NC1(C)CCCC=CCCCC(C)(C(=O)N[C@@H](CC(C)C)C(=O)N[C@@H](CC(C)C)C(=O)N2CCC[C@H]2C(=O)N[C@@H](CCC(=O)O)C(=O)N[C@@H](CC(N)=O)C(=O)N[C@@H](Cc2ccc(O)cc2)C(N)=O)NC(=O)[C@H](Cc2c[nH]c3ccccc23)NC(=O)[C@H](Cc2ccc(O)cc2)NC(=O)[C@H](CCC(=O)O)NC1=O)[C@@H](C)O (stereo partly shown) [YS-02, Ac-^17TSFX5EYWX5LLPENY^30-NH2] (Ac-TSF[ξαMeNle(6-ylidene)]EYW[ξαMeNle(6-ylidene)]LLPENY-NH2; staple 4-8) | – | – | – | – | cytosolic lactate dehydrogenase (LDH) release [2]: negligible lactate dehydrogenase release; cytosolic lactate dehydrogenase (LDH) release [3]: negligible lactate dehydrogenase release; Kd stronger in comparison to sMTIDE-02 [4]: approximately 3 fold
3 | CC(=O)N[C@H](C(=O)N[C@@H](CO)C(=O)N[C@@H](Cc1ccccc1)C(=O)NC1(C)CCCCCCC=CCCCC(C)(C(=O)N[C@@H](CCC(=O)O)C(=O)N[C@@H](CC(N)=O)C(=O)N[C@@H](Cc2ccc(O)cc2)C(N)=O)NC(=O)[C@H](CC(C)C)NC(=O)[C@H](CC(C)C)NC(=O)[C@H](C)NC(=O)[C@H](Cc2c[nH]c3ccccc23)NC(=O)[C@H](Cc2ccc(O)cc2)NC(=O)[C@H](CCC(=O)O)NC1=O)[C@@H](C)O (stereo partly shown) [YS-04, Ac-^17TSFX8EYWALLS5ENY^30-NH2] | 9.73 | 78.3 | greater potency in the T22 assay than YS-01 and YS-02 | significantly more helical in character in solution than YS-01 and YS-02 | Kd weaker than the i,i+4 analogue peptides (YS-01 and YS-02) ([4]; ratio to YS-01/YS-02 Kd): approximately 2 fold
4 | CC(=O)N[C@H](C(=O)N[C@@H](CO)C(=O)N[C@@H](Cc1ccccc1)C(=O)NC1(C)CCCC=CCCCC(C)(C(=O)N[C@@H](CC(C)C)C(=O)N[C@@H](CC(C)C)C(=O)N[C@@H](CO)C(=O)N[C@@H](CCC(=O)O)C(=O)N[C@@H](CC(N)=O)C(=O)N[C@@H](Cc2ccccc2)C(N)=O)NC(=O)[C@H](Cc2c[nH]c3ccccc23)NC(=O)[C@H](Cc2ccc(O)cc2)NC(=O)[C@H](CCC(=O)O)NC1=O)[C@@H](C)O (stereo partly shown) [YS-05, Ac-^17TSFX5EYWX5LLSENF^30-NH2] (Ac-TSF[ξαMeNle(6-ylidene)]EYW[ξαMeNle(6-ylidene)]LLSENF-NH2; staple 4-8) | – | – | improvement of both peptides to activate p53 | significantly more helical structure | cytosolic lactate dehydrogenase (LDH) release [2]: negligible activity; cytosolic lactate dehydrogenase (LDH) release [3]: negligible activity
5 | CC(=O)N[C@@H](CCCNC(=N)N)C(=O)N[C@@H](CCCNC(=N)N)C(=O)N[C@@H](CCCNC(=N)N)C(=O)NCCCCCC(=O)N[C@H](C(=O)N[C@@H](CO)C(=O)N[C@@H](Cc1ccccc1)C(=O)NC1(C)CCCCCCC=CCCCC(C)(C(=O)N[C@@H](CCC(=O)O)C(=O)N[C@@H](CC(N)=O)C(=O)N[C@@H](Cc2ccc(O)cc2)C(N)=O)NC(=O)[C@H](CC(C)C)NC(=O)[C@H](CC(C)C)NC(=O)[C@H](C)NC(=O)[C@H](Cc2c[nH]c3ccccc23)NC(=O)[C@H](Cc2ccc(O)cc2)NC(=O)[C@H](CCC(=O)O)NC1=O)[C@@H](C)O (stereo partly shown) [YS-10, Ac-RRR-Ahx-^17TSFX8EYWALLS5ENY^30-NH2] (Ac-RRR[Ahx]TSF[X1]EYWALL[ξαMeNle(6-ylidene)]ENY-NH2; staple 8-15) | 1.69 | 17.9 | – | – | –
6 | CC(=O)N[C@@H](CCCCN)C(=O)N[C@@H](CCCCN)C(=O)NCCCCCC(=O)N[C@H](C(=O)N[C@@H](CO)C(=O)N[C@@H](Cc1ccccc1)C(=O)N[C@]1(C)CCCCCCC=CCCC[C@@](C)(C(=O)N[C@@H](CCC(=O)O)C(=O)N[C@@H](CC(N)=O)C(=O)N[C@@H](Cc2ccccc2)C(N)=O)NC(=O)[C@H](CC(C)C)NC(=O)[C@H](CC(C)C)NC(=O)[C@H](C)NC(=O)[C@H](Cc2c[nH]c3ccccc23)NC(=O)[C@H](Cc2ccc(O)cc2)NC(=O)[C@H](CCC(=O)O)NC1=O)[C@@H](C)O [YS-07, Ac-KK-Ahx-^17TSFX8EYWALLS5ENF^30-NH2] (Ac-KK[Ahx]TSF[R8]EYWALL[S5]ENF-NH2; staple 7-14) | ~0.78 | 9.95 | most potent | – | p53 activation (β-galactosidase activity) in ARN8 cells [6]: efficiently induced β-galactosidase activity
7 | CC(=O)N[C@@H](CCCNC(=N)N)C(=O)N[C@@H](CCCNC(=N)N)C(=O)N[C@@H](CCCNC(=N)N)C(=O)NCCCCCC(=O)N[C@H](C(=O)N[C@@H](CO)C(=O)N[C@@H](Cc1ccccc1)C(=O)NC1(C)CCCCCCC=CCCCC(C)(C(=O)N[C@@H](CCC(=O)O)C(=O)N[C@@H](CC(N)=O)C(=O)N[C@@H](Cc2ccccc2)C(N)=O)NC(=O)[C@H](CC(C)C)NC(=O)[C@H](CC(C)C)NC(=O)[C@H](C)NC(=O)[C@H](Cc2c[nH]c3ccccc23)NC(=O)[C@H](Cc2ccc(O)cc2)NC(=O)[C@H](CCC(=O)O)NC1=O)[C@@H](C)O (stereo partly shown) [YS-09, Ac-RRR-Ahx-^17TSFX8EYWALLS5ENF^30-NH2] (Ac-RRR[Ahx]TSF[X1]EYWALL[ξαMeNle(6-ylidene)]ENF-NH2; staple 8-15) | 1.98 | 11.6 | – | – | p53 activation in ARN8 cells ([6]; 10% serum): slightly more activity than YS-07; p53 activation (β-galactosidase activity) in ARN8 cells [6]: sharp burst of p53 transcriptional activity at 3.125 μM followed by a sharp decline at higher concentrations
8 | CC(=O)N[C@H](C(=O)N[C@@H](CO)C(=O)N[C@@H](Cc1ccccc1)C(=O)N[C@]1(C)CCCC=CCCC[C@](C)(C(=O)N[C@@H](CC(C)C)C(=O)N[C@@H](CC(C)C)C(=O)N2CCC[C@H]2C(=O)N[C@@H](CCC(=O)O)C(=O)N[C@@H](CC(N)=O)C(=O)N[C@@H](Cc2ccccc2)C(N)=O)NC(=O)[C@H](Cc2c[nH]c3ccccc23)NC(=O)[C@H](Cc2ccc(O)cc2)NC(=O)[C@H](CCC(=O)O)NC1=O)[C@@H](C)O [YS-01, Ac-^17TSFX5EYWX5LLPENF^30-NH2] (Ac-TSF[R5]EYW[R5]LLPENF-NH2; staple 4-8) | – | – | – | – | Kd stronger in comparison to sMTIDE-02 [4]: approximately 3 fold
9 | CC(=O)N[C@H](C(=O)N[C@@H](CO)C(=O)N[C@@H](Cc1ccccc1)C(=O)N[C@]1(C)CCCC=CCCC[C@](C)(C(=O)N[C@@H](CC(C)C)C(=O)N[C@@H](CC(C)C)C(=O)N[C@@H](CO)C(=O)N[C@@H](CCC(=O)O)C(=O)N[C@@H](CC(N)=O)C(=O)N[C@@H](Cc2ccc(O)cc2)C(N)=O)NC(=O)[C@H](Cc2c[nH]c3ccccc23)NC(=O)[C@H](Cc2ccc(O)cc2)NC(=O)[C@H](CCC(=O)O)NC1=O)[C@@H](C)O [YS-06, Ac-^17TSFX5EYWX5LLSENY^30-NH2] (Ac-TSF[R5]EYW[R5]LLSENY-NH2; staple 4-8) | – | – | improvement of both peptides to activate p53 | significantly more helical structure | –
